Active and inactive are the calls of the source.
What was measured:
CAMA-1 [1] = assay: Induction of apoptosis in human CAMA-1 cells assessed as decrease in Bcl2 level at 1 to 5 uM incubated for 24 hrs by Western blot analysis; type: functional, cell-based; details: dose 1-5 µM
CAMA-1 [2] = assay: Induction of apoptosis in human CAMA-1 cells assessed as phosphatidylserine externalization at 1 to 5 uM incubated for 24 hrs by Annexin V-FITC staining based flow cytometric analysis; type: functional, cell-based; details: dose 1-5 µM
HCC1428 [3] = assay: Induction of mitochondrial dysfunction in tamoxifen-induced senescent human HCC1428 cells assessed as decrease in maximal respiration at 5 uM incubated for 6 hrs by real-time analysis; type: functional, cell-based
HCC1428 [4] = assay: Induction of AMPK phosphorylation in tamoxifen-induced senescent human HCC1428 cells incubated for 24 hrs by immunostaining based imaging cytometric analysis; type: cell-based; details: filed as activator
Mitochondrial membrane [5] = assay: Induction of mitochondrial membrane potential depolarization in tamoxifen-induced senescent human CAMA-1 cells assessed as increase in depolarized dead cell level at 1 to 5 uM incubated for 24 hrs by 7-AAD staining based flow cytometric analysis; type: cell membranes; details: dose 1-5 µM
BJ = assay: Cytotoxicity against human BJ cells assessed as effect on metabolic activity at 1 to 10 uM incubated for 24 hrs by MTT assay; type: toxicity, cell-based; details: dose 1-10 µM
MCF-10F [6] = assay: Induction of mitochondrial dysfunction in human MCF-10F cells assessed as decrease in maximal respiration at 5 uM incubated for 6 hrs by real time analysis; type: functional, cell-based
HCC1428 [7] = assay: Induction of ubiquitin-dependent mitophagy in tamoxifen-induced senescent human HCC1428 cells assessed as increase in parkin level at 5 uM by immunostaining based imaging cytometric analysis; type: functional, cell-based
HCC1428 [8] = assay: Induction of oxidative stress in tamoxifen-induced senescent human HCC1428 cells assessed as increase in mitochondrial superoxide production at 1 to 5 uM incubated for 24 hrs by MitoSOX red superoxide indicator based fluorescence analysis; type: functional, cell-based; details: dose 1-5 µM
HCC1428 [9] = assay: Induction of apoptosis in tamoxifen-induced senescent human HCC1428 cells assessed as increase in caspase 9 level incubated for 24 hrs by immunostaining based imaging cytometric analysis; type: functional, cell-based
HCC1428 [10] = assay: Induction of […] in human tamoxifen-induced senescent human HCC1428 cells at 1 to 5 uM incubated for 24 hrs by Annexin V-FITC staining based flow cytometric analysis; type: functional, cell-based; details: dose 1-5 µM
ZR-75-30 [11] = assay: Induction of apoptosis in tamoxifen-induced senescent human ZR-75-30 cells assessed as decrease in HSP90 level incubated for 24 hrs by immunostaining based imaging cytometric analysis; type: functional, cell-based
HCC1428 [12] = assay: Induction of apoptosis in human HCC1428 cells assessed as decrease in AKT level at 1 to 5 uM incubated for 24 hrs by Western blotting analysis; type: functional, cell-based; details: dose 1-5 µM
HCC1428 [13] = assay: Induction of oxidative stress in tamoxifen-induced senescent human HCC1428 cells assessed as increase in mitochondrial SOD2 level at 1 to 5 uM incubated for 24 hrs by MitoSOX red superoxide indicator based fluorescence analysis; type: functional, cell-based; details: dose 1-5 µM
HCC1428 [14] = assay: Anticancer activity against ER-positive human HCC1428 cells assessed as effect on metabolic activity upto 10 uM incubated for 24 hrs by MTT assay; type: functional, cell-based
HCC1428 [15] = assay: Induction of apoptosis in tamoxifen-induced senescent human HCC1428 cells assessed as decrease in HSP90 level incubated for 24 hrs by immunostaining based imaging cytometric analysis; type: functional, cell-based
HCC1500 [16] = assay: Induction of senescence in human HCC1500 cells assessed as increase in IL-8 level at 5 uM incubated for 24 hrs by immunostaining based imaging cytometric analysis; type: functional, cell-based
HCC1428 [17] = assay: Induction of apoptosis in tamoxifen-induced senescent human HCC1428 cells assessed as increase in caspase 3 level incubated for 24 hrs by immunostaining based imaging cytometric analysis; type: functional, cell-based
CAMA-1 [18] = assay: Induction of oxidative stress in tamoxifen-induced senescent human CAMA-1 cells assessed as increase in mitochondrial superoxide production at 1 to 5 uM incubated for 24 hrs by MitoSOX red superoxide indicator based fluorescence analysis; type: functional, cell-based; details: dose 1-5 µM
HCC1428 [19] = assay: Induction of autophagy in tamoxifen-induced senescent human HCC1428 cells assessed as increase in ULK1 level at 1 to 5 uM by immunostaining based imaging cytometric analysis; type: functional, cell-based; details: dose 1-5 µM
MCF-10F [20] = assay: Induction of mitochondrial dysfunction in tamoxifen-induced senescent human MCF-10F cells assessed as increase in proton leak at 5 uM incubated for 6 hrs by real-time analysis; type: functional, cell-based
HCC1428 [21] = assay: Induction of senescence in human HCC1428 cells assessed as increase in IL-8 level at 5 uM incubated for 24 hrs by immunostaining based imaging cytometric analysis; type: functional, cell-based
ZR-75-30 [22] = assay: Induction of apoptosis in tamoxifen-induced senescent human ZR-75-30 cells assessed as increase in caspase 3 level incubated for 24 hrs by immunostaining based imaging cytometric analysis; type: functional, cell-based
MCF-10F [23] = assay: Induction of mitochondrial dysfunction in tamoxifen-induced senescent human MCF-10F cells assessed as decrease in maximal respiration at 5 uM incubated for 6 hrs by real-time analysis; type: functional, cell-based
MCF-10F [24] = assay: Induction of mitochondrial dysfunction in human MCF-10F cells assessed as increase in proton leak at 5 uM incubated for 6 hrs by real time analysis; type: functional, cell-based
HCC1428 [25] = assay: Induction of autophagosome formation in tamoxifen-induced senescent human HCC1428 cells assessed as increase in LC3B level at 1 to 5 uM by immunostaining based imaging cytometric analysis; type: functional, cell-based; details: dose 1-5 µM
HCC1428 [26] = assay: Induction of mitochondrial dysfunction in human HCC1428 cells assessed as decrease in coupling efficiency at 5 uM incubated for 6 hrs by real time analysis; type: functional, cell-based
HCC1428 [27] = assay: Induction of mitochondrial dysfunction in tamoxifen-induced senescent human HCC1428 cells assessed as decrease in coupling efficiency respiration at 5 uM incubated for 6 hrs by real-time analysis; type: functional, cell-based
ZR-75-30 [28] = assay: Induction of apoptosis in human ZR-75-30 cells assessed as phosphatidylserine externalization at 1 to 5 uM incubated for 24 hrs by Annexin V-FITC staining based flow cytometric analysis; type: functional, cell-based; details: dose 1-5 µM
HCC1428 [29] = assay: Induction of mitochondrial dysfunction in human HCC1428 cells assessed as increase in proton leak at 5 uM incubated for 6 hrs by real time analysis; type: functional, cell-based
Mitochondrial membrane [30] = assay: Induction of mitochondrial membrane potential depolarization in tamoxifen-induced senescent human HCC1500 cells assessed as increase in depolarized dead cell level at 1 to 5 uM incubated for 24 hrs by 7-AAD staining based flow cytometric analysis; type: cell membranes; details: dose 1-5 µM
CAMA-1 [31] = assay: Induction of apoptosis in tamoxifen-induced senescent human CAMA-1 cells assessed as phosphatidylserine externalization at 1 to 5 uM incubated for 24 hrs by Annexin V-FITC staining based flow cytometric analysis; type: functional, cell-based; details: dose 1-5 µM
HCC1500 [32] = assay: Induction of apoptosis in tamoxifen-induced senescent human HCC1500 cells assessed as decrease in HSP90 level incubated for 24 hrs by immunostaining based imaging cytometric analysis; type: functional, cell-based
Mitochondrial membrane [33] = assay: Induction of mitochondrial membrane potential depolarization in tamoxifen-induced senescent human HCC1428 cells assessed as increase in depolarized dead cell level at 1 to 5 uM incubated for 24 hrs by 7-AAD staining based flow cytometric analysis; type: cell membranes; details: dose 1-5 µM
HCC1428 [34] = assay: Induction of apoptosis in human HCC1428 cells assessed as phosphatidylserine externalization at 1 to 5 uM incubated for 24 hrs by Annexin V-FITC staining based flow cytometric analysis; type: functional, cell-based; details: dose 1-5 µM
HCC1428 [35] = assay: Induction of mitochondrial dysfunction in tamoxifen-induced senescent human HCC1428 cells assessed as increase in proton leak at 5 uM incubated for 6 hrs by real-time analysis; type: functional, cell-based

Measured: Activity

CC(=O)Oc1ccc2c(=O)c(OCCCC[P+](c3ccccc3)(c3ccccc3)c3ccccc3)c(-c3ccc4c(c3)OC(c3ccccc3)(c3ccccc3)O4)oc2c1.[I-]
inactive: MCF-10F [6] | HCC1500 [16] | MCF-10F [20] | MCF-10F [23] | MCF-10F [24] | HCC1428 [25]
active: CAMA-1 [1] | CAMA-1 [2] | HCC1428 [3] | HCC1428 [4] | Mitochondrial membrane [5] | HCC1428 [7] | HCC1428 [8] | HCC1428 [9] | HCC1428 [10] | ZR-75-30 [11] | HCC1428 [12] | HCC1428 [13] | HCC1428 [14] | HCC1428 [15] | HCC1428 [17] | CAMA-1 [18] | HCC1428 [19] | HCC1428 [21] | ZR-75-30 [22] | HCC1428 [26] | HCC1428 [27] | ZR-75-30 [28] | HCC1428 [29] | Mitochondrial membrane [30] | CAMA-1 [31] | HCC1500 [32] | Mitochondrial membrane [33] | HCC1428 [34] | HCC1428 [35]
Non-toxic: BJ

— ChEMBL document CHEMBL6120962, “New Mitochondria-Targeted Fisetin Derivative Compromises Mitophagy and Limits Survival of Drug-Induced Senescent Breast Cancer Cells” (J Med Chem, 2024)
